The subject of the experiment is Smad3-responsive luciferase reporter (SBE4-Luc).
Protocol: Human primary tubular cells (PromoCell GmbH, Heidelberg, Germany) were cultured in Renal Epithelial Cell Growth Medium-2 (Promocell GmbH) with supplements according to manufacturer's protocol human primary renal tubular epithelial cells with <5 passages were used for all studies. For HIV infection of hRTECs, pNL4-3:ΔG/P-EGFP, a gag/poi-deleted HIV-1 construct that contains EGFP in the gag open reading frame, and pHR-IRES-EGFP, a control EGFP construct, were used to generate the VSV-G pseudotyped virus. Cells were infected with HIV pseudotyped virus or control virus for 2 days before the treatment with test compound.
Renilla luciferase reporter plasmid (pRL) was purchased from Promega.
Forty-eight hours post-transfection cells were treated with assigned concentrations of test compound together with or without 10 ng/ml TGF-β1 for 16 hours. Luciferase activities were measured using the Dual-Luciferase Reporter Assay kit (Promega, #E1910). Data are expressed as the ratio of firefly luciferase activity over Renilla luciferase activity. […] 48 hours after transfection, luciferase activities were measured.
Regarding `COc1ccc2cc(-c3nc(-c4ccc(B5OC(C)(C)C(C)(C)O5)cc4)no3)cnc2c1` [Example 3, 5-(7-methoxyquinolin-3-yl)-3-(4-(4,4,5,5-tetramethyl-1,3,2-dioxaborolan-2-yl)phenyl)-1,2,4-oxadiazole], the “Luciferase Activity (Relative to DMSO control) −TGFβ” value is recorded as 0.730.

For the compound `CCOC(=O)c1ccc(-c2noc(-c3cnc4cc(B5OC(C)(C)C(C)(C)O5)ccc4c3)n2)cc1` [Example 8, ethyl 4-(5-(7-(4,4,5,5-tetramethyl-1,3,2-dioxaborolan-2-yl)quinolin-3-yl)-1,2,4-oxadiazol-3-yl)benzoate], the “Luciferase Activity (Relative to DMSO control) −TGFβ” value was found to be 0.818.

`CC1(C)OB(c2ccc3cc(-c4nc(-c5ccc(C(=O)O)cc5)no4)cnc3c2)OC1(C)C` [Example 6, 4-(5-(7-(4,4,5,5-tetramethyl-1,3,2-dioxaborolan-2-yl)quinolin-3-yl)-1,2,4-oxadiazol-3-yl)benzoic acid]: the “Luciferase Activity (Relative to DMSO control) −TGFβ” value worked out at 0.722.

As for `COc1ccc2cc(-c3nc(-c4cccc(Br)n4)no3)cnc2c1` [Example 7], the “Luciferase Activity (Relative to DMSO control) −TGFβ” value was found to be 0.784.

With `CCOC(=O)c1ccc(-c2noc(-c3cnc4cc(Br)ccc4c3)n2)cc1` [Example 5, ethyl 4-(5-(7-bromoquinolin-3-yl)-1,2,4-oxadiazol-3-yl)benzoate], the “Luciferase Activity (Relative to DMSO control) −TGFβ” value is on record as 0.512.

For `COc1ccc2cc(-c3nc(-c4ccc([B-](F)(F)F)cc4)no3)cnc2c1` [Example 4], the “Luciferase Activity (Relative to DMSO control) −TGFβ” value is recorded as 0.366.

With `CCOC(=O)c1ccc(-c2noc(-c3cnc4cc(Cl)ccc4c3)n2)cc1` [Example 2], the “Luciferase Activity (Relative to DMSO control) −TGFβ” value is listed as 0.660.

(Values after patent US10669266B2, “Oxadiazole inhibitors of HIPK2 for treating kidney fibrosis” (ICAHN SCHOOL OF MEDICINE AT MOUNT SINAI, priority 2017, dated 2020).)
